Experimental data published in patent US20250051383A1, “NOVEL FEAZD, NIAZD, AND CUAZD COMPLEXES INCORPORATING 1-(2-HYDROXYPHENYLAZO)-2-NAPHTHOL (H2AZD) FOR BIOLOGICAL APPLICATIONS” (KING FAISAL UNIVERSITY, priority 2023, published 2025).
Converted amounts (≈) assume the structure as drawn. Where two headings read alike, the source gives them in different places.

Key:
Assay type in all cases: cell-based
[1] = tested on: Escherichia coli (−ve); test: Disc diffusion, inhibition zone and activity index vs chloramphenicol; parameters: activity index (%): concentration or dose not given beside the values; settings: for activity index (%): IZ of test compound/IZ of standard chloramphenicol ×100; for inhibition zone (IZ): disc diffusion
Method: (§1) The in vitro antibacterial and antifungal activity of the components was assessed using a series of bacteria (Pseudomonas aeruginosa (−ve), Staphylococcus aureus (+ve), Escherichia coli (−ve), and Bacillus cereus (+ve)) and fungi (Trichophyton rubrum, Aspergillus flavus, and Candida albicans). The disc diffusion method was used to perform the in vitro antimicrobial activity tests. The biological activity of each compound was determined by examining its impact on the size of the inhibition zone, which is a measure of the compound's effectiveness in inhibiting the growth of microorganisms. The inhibitory zone (IZ) surrounding the disc was measured in millimeters. The activity of the current compounds was compared to that of the standard antibiotic chloramphenicol, and the % Activity Index (%=IZ of test compound/IZ of Standard)×100, was evaluated.

[2] = tested on: Pseudomonas aeruginosa (−ve); test: as above; parameters: activity index (%): concentration or dose not given beside the values; settings: for activity index (%): IZ of test compound/IZ of standard chloramphenicol ×100; for inhibition zone (IZ): disc diffusion
Method: as §1

[3] = tested on: Aspergillus flavus; test: as above; settings: for activity index (%): IZ of test compound/IZ of standard ×100; for inhibition zone (IZ): disc diffusion
Method: as §1

[4] = tested on: Bacillus cereus (+ve); test: as above; settings: for activity index (%): IZ of test compound/IZ of standard chloramphenicol ×100; for inhibition zone (IZ): disc diffusion
Method: as §1

[5] = tested on: Candida albicans; test: as above; settings: for activity index (%): IZ of test compound/IZ of standard ×100; for inhibition zone (IZ): disc diffusion
Method: as §1

[6] = tested on: Staphylococcus aureus (+ve); test: as above; settings: for activity index (%): IZ of test compound/IZ of standard chloramphenicol ×100; for inhibition zone (IZ): disc diffusion
Method: as §1

[7] = tested on: Trichophyton rubrum; test: as above; settings: for activity index (%): IZ of test compound/IZ of standard ×100; for inhibition zone (IZ): disc diffusion
Method: as §1

[8] = tested on: Aspergillus flavus; test: MIC by repeated dilution
Source text: (§2) The MIC, or the lowest concentration of a drug that can inhibit the development of bacteria or fungi, is often used as a starting point in larger preclinical studies of new antibacterial medications. The MIC value was obtained by repeatedly diluting a sample until the desired concentration was reached.

[9] = tested on: Bacillus cereus (+ve); test: MIC by repeated dilution
Source text: as §2

[10] = tested on: Candida albicans; test: MIC by repeated dilution
Source text: as §2

[11] = tested on: Escherichia coli (−ve); test: MIC by repeated dilution
Source text: as §2

[12] = tested on: Pseudomonas aeruginosa (−ve); test: MIC by repeated dilution
Source text: as §2

[13] = tested on: Staphylococcus aureus (+ve); test: MIC by repeated dilution
Source text: as §2

[14] = tested on: Trichophyton rubrum; test: MIC by repeated dilution
Source text: as §2

[15] = tested on: bacteria or fungi; test: MIC by repeated dilution, summary over the tested bacteria and fungi
Source text: as §2

| SMILES | activity index (%) [1] | inhibition zone (IZ) [1] | activity index (%) [2] | inhibition zone (IZ) [2] | activity index (%) [3] | inhibition zone (IZ) [3] | activity index (%) [4] | inhibition zone (IZ) [4] | activity index (%) [5] | inhibition zone (IZ) [5] | activity index (%) [6] | inhibition zone (IZ) [6] | activity index (%) [7] | inhibition zone (IZ) [7] | MIC [8] | MIC [9] | MIC [10] | MIC [11] | MIC [12] | MIC [13] | further results |
| --- | --- | --- | --- | --- | --- | --- | --- | --- | --- | --- | --- | --- | --- | --- | --- | --- | --- | --- | --- | --- | --- |
| O.O.[Cl][Fe]1[O]c2ccccc2N=Nc2c(ccc3ccccc23)[O]1 [FeAZD] | 60.00% | 12 mm | 61.11% | 11 mm | 52.63% | 10 mm | 66.67% | 12 mm | 57.14% | 12 mm | 72.22% | 13 mm | 50.00% | 11 mm | 6.25 ppm | 6.25 ppm | 6.25 ppm | 6.25 ppm | 12.5 ppm | 6.25 ppm | MIC [14]: 6.25 ppm |
| O.O.O.c1ccc2c(c1)N=Nc1c(ccc3ccccc13)[O][Cu][O]2 [CuAZD] |  | 13 mm |  | 13 mm | 63.16% | 12 mm | 72.22% | 13 mm | 61.90% | 13 mm | 77.78% | 14 mm | 59.09% | 13 mm | 6.25 ppm | 6.25 ppm | 6.25 ppm | 3.125 ppm | 6.25 ppm | 6.25 ppm | MIC [14]: 6.25 ppm |
| Oc1ccccc1N=Nc1c(O)ccc2ccccc12 [H2AZD, 1-(2-hydroxyphenylazo)-2-naphthol] | 40.00% | 8 mm | 44.44% | 8 mm | 42.11% | 8 mm | 44.44% | 8 mm | 38.10% | 8 mm | 50.00% | 9 mm | 31.82% | 7 mm |  |  |  |  |  |  | MIC ([8]; read-out: MIC): 50 µg/mL (≈ 189 µM); MIC ([9]; read-out: MIC): 50 µg/mL (≈ 189 µM); MIC ([10]; read-out: MIC): 50 µg/mL (≈ 189 µM); MIC ([11]; read-out: MIC): 50 µg/mL (≈ 189 µM); MIC ([12]; read-out: MIC): 50 µg/mL (≈ 189 µM); MIC ([13]; read-out: MIC): 50 µg/mL (≈ 189 µM); MIC ([14]; read-out: MIC): 50 µg/mL (≈ 189 µM); MIC [15]: ~50 µg/mL (≈ 189 µM) |
| O.c1ccc2c(c1)N=Nc1c(ccc3ccccc13)[O][Ni][O]2 [NiAZD] | 55.00% | 11 mm | 61.11% | 11 mm | 52.63% | 10 mm | 61.11% | 11 mm | 52.38% | 11 mm | 72.22% | 13 mm | 45.45% | 10 mm | 6.25 ppm | 6.25 ppm | 6.25 ppm | 6.25 ppm | 12.5 ppm | 6.25 ppm | MIC [14]: 6.25 ppm |
